Laboratory results from ChEMBL document CHEMBL6083291, “Discovery of Thiochroman Derivatives as Potent, Oral Selective Estrogen Receptor Degraders and Antagonists for the Treatment of Endocrine-Resistant Breast Cancer” (J Med Chem, 2024).

Columns and labels:
MCF7 [1] = test: Antiproliferative activity against human MCF7 cells assessed as reduction in cell viability incubated for 6 days by CellTiter-Glo reagent based luminescence analysis; conditions: mcf7
T47D = test: Antiproliferative activity against human T47D cells assessed as reduction in cell viability
CAMA-1 = test: Antiproliferative activity against human CAMA-1 cells assessed as reduction in cell viability
BT-474 = test: Antiproliferative activity against human BT-474 cells assessed as reduction in cell viability
MDA-MB-361 = test: Antiproliferative activity against human MDA-MB-361 cells assessed as reduction in cell viability
[2] = Antiproliferative activity against endocrine-resistant human MCF7 Tam1 cells assessed as inhibition of cell growth; conditions: Tamoxifen-resistant MCF7
MCF7 [3] = test: Antiproliferative activity against human MCF7 cells harboring ER-alpha Y537S mutant assessed as inhibition of cell growth
[4] = Half life in Sprague-Dawley rat plasma at 2 mg/kg, iv measured for 24 hrs by LC-MS/MS analysis; format: ADME, organism-based
[5] = C0 in Sprague-Dawley rat plasma at 2 mg/kg, iv by LC-MS/MS analysis; format: ADME, organism-based
[6] = AUC(0 to t) in Sprague-Dawley rat plasma at 2 mg/kg, iv measured for 24 hrs by LC-MS/MS analysis; format: ADME, organism-based
[7] = MRT in Sprague-Dawley rat plasma at 2 mg/kg, iv measured for 24 hrs by LC-MS/MS analysis; format: ADME, organism-based
[8] = Clearance in Sprague-Dawley rat plasma at 2 mg/kg, iv measured for 24 hrs by LC-MS/MS analysis; format: ADME, organism-based
[9] = Volume of distribution at steady state in Sprague-Dawley rat plasma at 2 mg/kg, iv measured for 24 hrs by LC-MS/MS analysis; format: ADME, organism-based; conditions: read-out: Vdss
[10] = Half life in Sprague-Dawley rat plasma at 10 mg/kg, po measured for 24 hrs by LC-MS/MS analysis; format: ADME, organism-based
[11] = Tmax in Sprague-Dawley rat plasma at 10 mg/kg, po measured for 24 hrs by LC-MS/MS analysis; format: ADME, organism-based
[12] = Cmax in Sprague-Dawley rat plasma at 10 mg/kg, po measured for 24 hrs by LC-MS/MS analysis; format: ADME, organism-based
[13] = AUC(0 to t) in Sprague-Dawley rat plasma at 10 mg/kg, po measured for 24 hrs by LC-MS/MS analysis; format: ADME, organism-based
[14] = MRT in Sprague-Dawley rat plasma at 10 mg/kg, po measured for 24 hrs by LC-MS/MS analysis; format: ADME, organism-based
[15] = Oral bioavailability in Sprague-Dawley rat at 10 mg/kg measured for 24 hrs by LC-MS/MS analysis; format: ADME, organism-based; conditions: in vivo
[16] = Half life in Sprague-Dawley rat plasma at 20 mg/kg, po measured for 10 hrs by LC-MS/MS analysis; format: ADME, organism-based
[17] = Tmax in Sprague-Dawley rat plasma at 20 mg/kg, po measured for 10 hrs by LC-MS/MS analysis; format: ADME, organism-based
[18] = Cmax in Sprague-Dawley rat plasma at 20 mg/kg, po measured for 10 hrs by LC-MS/MS analysis; format: ADME, organism-based
[19] = AUC(0 to t) in Sprague-Dawley rat plasma at 20 mg/kg, po measured for 10 hrs by LC-MS/MS analysis; format: ADME, organism-based
[20] = MRT in Sprague-Dawley rat plasma at 20 mg/kg, po measured for 10 hrs by LC-MS/MS analysis; format: ADME, organism-based
[21] = Half life in Sprague-Dawley rat brain at 20 mg/kg, po measured for 10 hrs by LC-MS/MS analysis; format: ADME, organism-based
[22] = Tmax in Sprague-Dawley rat brain at 20 mg/kg, po measured for 10 hrs by LC-MS/MS analysis; format: ADME, organism-based
[23] = Cmax in Sprague-Dawley rat brain at 20 mg/kg, po measured for 10 hrs by LC-MS/MS analysis; format: ADME, organism-based
[24] = AUC(0 to t) in Sprague-Dawley rat brain at 20 mg/kg, po measured for 10 hrs by LC-MS/MS analysis; format: ADME, organism-based; conditions: in vivo
[25] = MRT in Sprague-Dawley rat brain at 20 mg/kg, po measured for 10 hrs by LC-MS/MS analysis; format: ADME, organism-based
[26] = Ratio of drug level in brain to plasma in Sprague-Dawley rat at 20 mg/kg, po measured for 10 hrs by LC-MS/MS analysis; format: ADME, organism-based; conditions: brain and plasma
[27] = Toxicity in Sprague-Dawley rat assessed as thickened endometrium in uterus at 10 mg/kg, po qd for 3 days by Hematoxylin-Eosin staining based analysis; format: organism-based; conditions: in vivo, 72 h, time 3 day
[28] = Toxicity against Balb/c mouse xenografted with human MCF7 Tam1 cells assessed as changes in body weight at 10 to 30 mg/kg, po qd for 21 days; format: organism-based; conditions: in vivo, 504 h, dose 10-30 mg/kg, time 21 day
animal or person [29] = conditions: Homo sapiens, Tamoxifen-resistant MCF7, po, 504 h, read-out: TGI
animal or person [30] = conditions: Homo sapiens, Tamoxifen-resistant MCF7, po, 504 h, read-out: TGI; remark: listed apart in the source
[31] = Ratio of drug level in brain to plasma in mouse; format: ADME; conditions: brain and plasma

**Q.** Which IC50 (MCF7 [1]) does the source give for `COc1cc(F)ccc1[C@H]1CSc2cc(O)ccc2[C@H]1c1ccc(OCCN2CC(CF)C2)cc1` here?
**A.** Its IC50 is 0.25 nM.

**Q.** And the IC50 (T47D)?
**A.** The IC50 was 4 nM.

**Q.** What about the IC50 (CAMA-1) of the same compound?
**A.** The IC50 was 4 nM.

**Q.** And the IC50 (BT-474)?
**A.** Its IC50 is 4 nM.

**Q.** What about the IC50 (MDA-MB-361) of the same compound?
**A.** The IC50 was about 15 nM.

**Q.** What about the IC50 [2] of the same compound?
**A.** The IC50 was 5.37 nM.

**Q.** What about the IC50 (MCF7 [3]) of the same compound?
**A.** Its IC50 is 10.6 nM.

**Q.** What about the half-life [4] of the same compound?
**A.** Its half-life is 4 h.

**Q.** What about the C0 [5] of the same compound?
**A.** The C0 was 741 ng/mL.

**Q.** What about the AUC(0-t) at 24 h [6] of the same compound?
**A.** The AUC(0-t) at 24 h was 1370 ng·h/mL.

**Q.** And the MRT [7]?
**A.** The MRT was 5.24 h.

**Q.** And the clearance [8]?
**A.** The clearance was 23.3 mL/min/kg.

**Q.** What about the Vd [9] of the same compound?
**A.** The Vd was 6.6 L/kg.

**Q.** And the half-life [10]?
**A.** The half-life was 8.9 h.

**Q.** And the Tmax [11]?
**A.** The Tmax was 3 h.

**Q.** And the Cmax [12]?
**A.** Its Cmax is 198 ng/mL.

**Q.** And the AUC(0-t) at 24 h [13]?
**A.** The AUC(0-t) at 24 h was 1360 ng·h/mL.

**Q.** And the MRT [14]?
**A.** The MRT was 13.4 h.

**Q.** And the bioavailability [15]?
**A.** The bioavailability was 19.9%.

**Q.** And the half-life [16]?
**A.** Its half-life is 5.6 h.

**Q.** And the Tmax [17]?
**A.** The Tmax was 6 h.

**Q.** And the Cmax [18]?
**A.** The Cmax was 509 ng/mL.

**Q.** What about the AUC(0-t) at 10 h [19] of the same compound?
**A.** Its AUC(0-t) at 10 h is 3660 ng·h/mL.

**Q.** And the MRT [20]?
**A.** Its MRT is 10.6 h.

**Q.** What about the half-life [21] of the same compound?
**A.** Its half-life is 7 h.

**Q.** What about the Tmax [22] of the same compound?
**A.** The Tmax was 6 h.

**Q.** And the Cmax [23]?
**A.** Its Cmax is 1470 ng/g.

**Q.** What about the AUCt [24] of the same compound?
**A.** Its AUCt is 11170 ng·h/g.

**Q.** What about the MRT [25] of the same compound?
**A.** Its MRT is 12.4 h.

**Q.** And the Kp at 10 h [26]?
**A.** The Kp at 10 h was 3.05.

**Q.** And the Activity [27]?
**A.** Its Activity is “Non-toxic”.

**Q.** What about the Activity [28] of the same compound?
**A.** The Activity was “Non-toxic”.

**Q.** What about the inhibition in vivo at 10 mg/kg (animal or person [29]) of the same compound?
**A.** The inhibition in vivo at 10 mg/kg was 26.8%.

**Q.** And the inhibition in vivo at 30 mg/kg (animal or person [30])?
**A.** Its inhibition in vivo at 30 mg/kg is 64.5%.

**Q.** For `CCNCCc1ccc(CN(CC)c2cc(OC)ccc2[C@@H]2CCc3cc(O)ccc3C2)cc1` [ELACESTRANT], which Kp [31] is on record?
**A.** Its Kp is 0.36.
